Assay results: patent publication US9902736B2, “1-oxo/acylation-14-acylated oridonin derivative, preparation method therefor and application thereof” (HANGZHOU BENSHENG PHARMACEUTICAL CO., LTD., priority 2012, dated 2018)
Values after ≈ are worked out from the molar mass of the structure shown.

Legend:
RPMI 8226 = experiment: Multiple myeloma cell growth inhibition, MTT, 72 h; format: cell-based; conditions: Homo sapiens
Procedure: Multiple myeloma cell lines: RPMI8226 (multiple myeloma), purchased from Fuxiang Bio-tech Co. Ltd., Shanghai, China.
(§1) 6000 well-growing cells were obtained and inoculated into wells of a 96-well cell culture plate. […] On the next day, the 1-oxo/acylated-14-acylated oridonin derivatives of different concentrations were added and mixed uniformly. The plate was placed in a carbon dioxide cell incubator (5% CO2) at 37° C. and incubated for 72 hours. Then the viable cell concentration was determined by MTT method.

Kasumi-1 = experiment: Leukemia cell growth inhibition, MTT, 72 h; format: cell-based; conditions: Homo sapiens
Text: (§2) Leukemia cell lines: leukemia cell lines: K562/adr (drug-resistant, chronic myeloid leukemia, CML), NB4 (acute promyelocytic leukemia, AML), Kasumi-1 (acute myeloid leukemia M2 type, AML-M2), Jurkat (acute lymphoblastic leukemia, ALL), all of which were donated by Cancer Research Institute of Zhejiang University, China; and H9 (acute lymphoblastic leukemia, ALL), which was purchased from China Center for Type Culture Collection.
as §1, with “6000 well-growing leukemia cells were” for “6000 well-growing cells were”, “C. and was incubated for” for “C. and incubated for”

K562/ADR = experiment: Leukemia cell growth inhibition, MTT, 72 h; format: cell-based; conditions: Homo sapiens
Text: as §2
as §1, with “6000 well-growing leukemia cells were” for “6000 well-growing cells were”, “C. and was incubated for” for “C. and incubated for”

CaEs-17 = experiment: Solid tumor cell growth inhibition, MTT, 72 h; format: cell-based; conditions: Homo sapiens, CaEs17
Procedure: (§3) 6000 well-growing human solid tumor cells were obtained and inoculated into wells of a 96-well cell culture plate. The culture medium was DMEM High Glucose cell culture medium containing 10% fetal bovine serum. The plate was placed in a carbon dioxide cell incubator (5% CO2) at 37° C. and incubated for 24 hours. After added with 1-oxo/acylated-14-acylated oridonin derivatives of different concentration and mixed uniformly, the plate was placed in a carbon dioxide cell incubator (5% CO2) at 37° C. and incubated for 72 hours. Then the viable cell concentration was determined by MTT method.

Becap-37 = experiment: Solid tumor cell growth inhibition, MTT, 72 h; format: cell-based; conditions: Homo sapiens
Procedure: as §3

Hep G2 = experiment: Solid tumor cell growth inhibition, MTT, 72 h; format: cell-based; conditions: Homo sapiens, HepG2
Procedure: as §3

PC-3 = experiment: Solid tumor cell growth inhibition, MTT, 72 h; format: cell-based; conditions: Homo sapiens
Procedure: as §3

PANC-1 = experiment: Solid tumor cell growth inhibition, MTT, 72 h; format: cell-based; conditions: Homo sapiens
Procedure: as §3

SK-OV-3 = experiment: Solid tumor cell growth inhibition, MTT, 72 h; format: cell-based; conditions: Homo sapiens, SK-OV-3, 72 h, MTT; for IC50: read-out: IC50 SK-OV-3; for IC90: read-out: IC90 SK-OV-3
Procedure: as §3

MG-63 = experiment: Solid tumor cell growth inhibition, MTT, 72 h; format: cell-based; conditions: Homo sapiens
Procedure: as §3

A549 = experiment: Solid tumor cell growth inhibition, MTT, 72 h; format: cell-based; conditions: Homo sapiens
Procedure: as §3

U87-MG = experiment: Solid tumor cell growth inhibition, MTT, 72 h; format: cell-based; conditions: Homo sapiens, U-87 MG
Procedure: as §3

RKO = experiment: Solid tumor cell growth inhibition, MTT, 72 h; format: cell-based; conditions: Homo sapiens
Procedure: as §3

H9 = experiment: Leukemia cell growth inhibition, MTT, 72 h; format: cell-based, human; conditions: for IC50 / IC90: Homo sapiens, H9, 72 h, MTT
Text: as §2
as §1, with “6000 well-growing leukemia cells were” for “6000 well-growing cells were”, “C. and was incubated for” for “C. and incubated for”

Jurkat = experiment: Leukemia cell growth inhibition, MTT, 72 h; format: cell-based, human; conditions: for IC50 / IC90: Homo sapiens, Jurkat, 72 h, MTT
Text: as §2
as §1, with “6000 well-growing leukemia cells were” for “6000 well-growing cells were”, “C. and was incubated for” for “C. and incubated for”

NB4 = experiment: Leukemia cell growth inhibition, MTT, 72 h; format: cell-based, human; conditions: for IC50 / IC90: Homo sapiens, NB-4, 72 h, MTT
Text: as §2
as §1, with “6000 well-growing leukemia cells were” for “6000 well-growing cells were”, “C. and was incubated for” for “C. and incubated for”

CNE = experiment: Solid tumor cell growth inhibition, MTT, 72 h; format: cell-based, human; conditions: Homo sapiens, CNE; 72 h, MTT
Procedure: as §3

Hep-2 = experiment: Solid tumor cell growth inhibition, MTT, 72 h; format: cell-based, human; conditions: for IC50 / IC90: Homo sapiens, HEp-2, 72 h, MTT
Procedure: as §3

MGC-803 = experiment: Solid tumor cell growth inhibition, MTT, 72 h; format: cell-based, human; conditions: for IC50 / IC90: Homo sapiens, MGC-803, 72 h, MTT
Procedure: as §3

Hela = experiment: Solid tumor cell growth inhibition, MTT, 72 h; format: cell-based, human; conditions: Homo sapiens, HeLa; 72 h, MTT
Procedure: as §3

## C=C1C(=O)[C@]23[C@H](OC(=O)c4ccc(OC)cc4)[C@H]1CC[C@H]2[C@@]12CO[C@@]3(O)[C@@H](O)[C@@H]1C(C)(C)CCC2OC(C)=O (some centres unmarked) [BS-OR-091]
RPMI 8226
  IC50: 0.37 µg/mL (≈ 0.684 µM)
  IC90: 1.8 µg/mL (≈ 3.33 µM)
Kasumi-1
  IC50: 0.52 µg/mL (≈ 0.962 µM)
  IC90: 1.22 µg/mL (≈ 2.26 µM)
K562/ADR
  IC50: 0.45 µg/mL (≈ 0.832 µM)
  IC90: 1.72 µg/mL (≈ 3.18 µM)
CaEs-17
  IC50: 0.99 µg/mL (≈ 1.83 µM)
  IC90: 4.83 µg/mL (≈ 8.93 µM)
Becap-37
  IC50: 1.26 µg/mL (≈ 2.33 µM)
  IC90: 2.48 µg/mL (≈ 4.59 µM)
Hep G2
  IC50: 1.4 µg/mL (≈ 2.59 µM)
  IC90: 6.28 µg/mL (≈ 11.6 µM)
PC-3
  IC50: 1.75 µg/mL (≈ 3.24 µM)
  IC90: 4.71 µg/mL (≈ 8.71 µM)
PANC-1
  IC50: 1.69 µg/mL (≈ 3.13 µM)
  IC90: 5.65 µg/mL (≈ 10.5 µM)
SK-OV-3
  IC50: 1.75 µg/mL (≈ 3.24 µM)
  IC90: 4.71 µg/mL (≈ 8.71 µM)
MG-63
  IC50: 0.49 µg/mL (≈ 0.906 µM)
  IC90: 1.46 µg/mL (≈ 2.7 µM)
A549
  IC50: 2.38 µg/mL (≈ 4.4 µM)
  IC90: 7.54 µg/mL (≈ 13.9 µM)
U87-MG
  IC50: 0.67 µg/mL (≈ 1.24 µM)
  IC90: 1.98 µg/mL (≈ 3.66 µM)
RKO
  IC50: 0.41 µg/mL (≈ 0.758 µM)
  IC90: 0.93 µg/mL (≈ 1.72 µM)
H9
  IC50: 0.14 µg/mL (≈ 0.259 µM)
  IC90: 0.46 µg/mL (≈ 0.851 µM)
Jurkat
  IC50: 0.55 µg/mL (≈ 1.02 µM)
  IC90: 2.31 µg/mL (≈ 4.27 µM)
NB4
  IC50: 0.13 µg/mL (≈ 0.24 µM)
  IC90: 0.73 µg/mL (≈ 1.35 µM)
CNE
  IC50: 1.18 µg/mL (≈ 2.18 µM)
  IC90: 4.52 µg/mL (≈ 8.36 µM)
Hep-2
  IC50: 0.96 µg/mL (≈ 1.78 µM)
  IC90: 6.65 µg/mL (≈ 12.3 µM)
Hep-2; in comparison with oridonin
  anti-Hep-2 activity increased: ~5 fold
MGC-803
  IC50: 0.59 µg/mL (≈ 1.09 µM)
  IC90: 5.7 µg/mL (≈ 10.5 µM)
MGC-803; in comparison with oridonin
  anti-MGC-803 activity increased: ~10 fold
Hela
  IC50: 1.28 µg/mL (≈ 2.37 µM)
  IC90: 3.51 µg/mL (≈ 6.49 µM)

## C=C1C(=O)[C@]23[C@H](OC(=O)c4ccc(Cl)cc4)[C@H]1CC[C@H]2[C@@]12CO[C@@]3(O)[C@@H](O)[C@@H]1C(C)(C)CCC2=O [BS-OR-010]
RPMI 8226
  IC50: 0.28 µg/mL (≈ 0.559 µM)
  IC90: 1.78 µg/mL (≈ 3.55 µM)
Kasumi-1
  IC50: 0.57 µg/mL (≈ 1.14 µM)
  IC90: 1.76 µg/mL (≈ 3.51 µM)
K562/ADR
  IC50: 0.44 µg/mL (≈ 0.878 µM)
  IC90: 1.98 µg/mL (≈ 3.95 µM)
CaEs-17
  IC50: 1.1 µg/mL (≈ 2.2 µM)
  IC90: 5.51 µg/mL (≈ 11 µM)
Becap-37
  IC50: 1.03 µg/mL (≈ 2.06 µM)
  IC90: 3.72 µg/mL (≈ 7.43 µM)
Hep G2
  IC50: 0.99 µg/mL (≈ 1.98 µM)
  IC90: 11.7 µg/mL (≈ 23.4 µM)
PC-3
  IC50: 1.66 µg/mL (≈ 3.31 µM)
  IC90: 4.77 µg/mL (≈ 9.52 µM)
PANC-1
  IC50: 1.86 µg/mL (≈ 3.71 µM)
  IC90: 10.7 µg/mL (≈ 21.3 µM)
SK-OV-3
  IC50: 1.66 µg/mL (≈ 3.31 µM)
  IC90: 4.77 µg/mL (≈ 9.52 µM)
MG-63
  IC50: 0.46 µg/mL (≈ 0.918 µM)
  IC90: 0.95 µg/mL (≈ 1.9 µM)
A549
  IC50: 2.83 µg/mL (≈ 5.65 µM)
  IC90: 7.29 µg/mL (≈ 14.6 µM)
U87-MG
  IC50: 0.94 µg/mL (≈ 1.88 µM)
  IC90: 2.78 µg/mL (≈ 5.55 µM)
RKO
  IC50: 0.46 µg/mL (≈ 0.918 µM)
  IC90: 0.95 µg/mL (≈ 1.9 µM)
H9
  IC50: 0.38 µg/mL (≈ 0.759 µM)
  IC90: 0.96 µg/mL (≈ 1.92 µM)
Jurkat
  IC50: 0.48 µg/mL (≈ 0.958 µM)
  IC90: 6.06 µg/mL (≈ 12.1 µM)
Jurkat; as compared with oridonin
  anti-Jurkat cell line activity increased: ~4 fold
NB4
  IC50: 0.15 µg/mL (≈ 0.299 µM)
  IC90: 0.95 µg/mL (≈ 1.9 µM)
CNE
  IC50: 1.39 µg/mL (≈ 2.77 µM)
  IC90: 5.94 µg/mL (≈ 11.9 µM)
Hep-2
  IC50: 1.8 µg/mL (≈ 3.59 µM)
  IC90: 9.11 µg/mL (≈ 18.2 µM)
MGC-803
  IC50: 0.68 µg/mL (≈ 1.36 µM)
  IC90: 9.04 µg/mL (≈ 18 µM)
Hela
  IC50: 1.49 µg/mL (≈ 2.97 µM)
  IC90: 5.31 µg/mL (≈ 10.6 µM)

## C=C1C(=O)[C@]23[C@H](OC(=O)c4ccc(Cl)cc4)[C@H]1CC[C@H]2[C@@]12CO[C@@]3(O)[C@@H](O)[C@@H]1C(C)(C)CC[C@@H]2OC(C)=O [BS-OR-093]
RPMI 8226
  IC50: 0.2 µg/mL (≈ 0.367 µM)
  IC90: 1.55 µg/mL (≈ 2.84 µM)
Kasumi-1
  IC50: 0.41 µg/mL (≈ 0.752 µM)
  IC90: 1.31 µg/mL (≈ 2.4 µM)
K562/ADR
  IC50: 0.37 µg/mL (≈ 0.679 µM)
  IC90: 1.57 µg/mL (≈ 2.88 µM)
CaEs-17
  IC50: 0.86 µg/mL (≈ 1.58 µM)
  IC90: 5.21 µg/mL (≈ 9.56 µM)
Becap-37
  IC50: 1.1 µg/mL (≈ 2.02 µM)
  IC90: 1.99 µg/mL (≈ 3.65 µM)
Hep G2
  IC50: 0.96 µg/mL (≈ 1.76 µM)
  IC90: 7.13 µg/mL (≈ 13.1 µM)
PC-3
  IC50: 1.6 µg/mL (≈ 2.94 µM)
  IC90: 5.12 µg/mL (≈ 9.39 µM)
PANC-1
  IC50: 1.69 µg/mL (≈ 3.1 µM)
  IC90: 9.36 µg/mL (≈ 17.2 µM)
SK-OV-3
  IC50: 1.6 µg/mL (≈ 2.94 µM)
  IC90: 5.12 µg/mL (≈ 9.39 µM)
MG-63
  IC50: 0.45 µg/mL (≈ 0.826 µM)
  IC90: 2.31 µg/mL (≈ 4.24 µM)
A549
  IC50: 1.78 µg/mL (≈ 3.27 µM)
  IC90: 6.68 µg/mL (≈ 12.3 µM)
U87-MG
  IC50: 0.56 µg/mL (≈ 1.03 µM)
  IC90: 1.89 µg/mL (≈ 3.47 µM)
RKO
  IC50: 0.41 µg/mL (≈ 0.752 µM)
  IC90: 0.92 µg/mL (≈ 1.69 µM)
H9
  IC50: 0.06 µg/mL (≈ 0.11 µM)
  IC90: 0.33 µg/mL (≈ 0.605 µM)
H9; as compared with oridonin
  anti-H9 cell line activity increased: 22 fold
Jurkat
  IC50: 0.44 µg/mL (≈ 0.807 µM)
  IC90: 3.03 µg/mL (≈ 5.56 µM)
NB4
  IC50: 0.05 µg/mL (≈ 0.0917 µM)
  IC90: 0.47 µg/mL (≈ 0.862 µM)
NB4; as compared with oridonin
  anti-NB4 cell line activity increased: 15 fold
CNE
  IC50: 1.31 µg/mL (≈ 2.4 µM)
  IC90: 5.02 µg/mL (≈ 9.21 µM)
Hep-2
  IC50: 1.42 µg/mL (≈ 2.61 µM)
  IC90: 6.91 µg/mL (≈ 12.7 µM)
MGC-803
  IC50: 0.79 µg/mL (≈ 1.45 µM)
  IC90: 6.73 µg/mL (≈ 12.3 µM)
Hela
  IC50: 1.02 µg/mL (≈ 1.87 µM)
  IC90: 3.45 µg/mL (≈ 6.33 µM)
